Test results reported in ChEMBL document CHEMBL6134905, “Double Swords in One: Novel Selective PI3K/110β PROTAC Degraders for the Treatment of Multidrug-Resistant Cancer by Activating ERS and Inhibiting P-gp” (J Med Chem, 2025).
pIC50: −log10 of the molar value. Calls of active or inactive are those of the source. The rule behind the calls is not given here. Residues, ends and D or L forms follow the SMILES beside them. *: point of attachment. Cbz = O=C(OCc1ccccc1)*; CH2F = FC*

How the values were obtained:
A549/CDDP [1] = test: Activation of unfolded protein response in human A549/DDP cells at 25 uM incubated for 24 hrs by PROTEOSTATR aggresome dye based fluorescent microscopy; assay type: functional, cell-based
A549/CDDP [2] = test: Induction of cell death in human A549/DDP cells at 25 uM incubated for 24 hrs; assay type: functional, cell-based
MCF7/ADM [3] = test: Induction of cell death in human MCF-7/ADM cells at 25 uM incubated for 24 hrs; assay type: functional, cell-based
[4] = Induction of apoptosis in human MCF7/ADM cells at 25 uM incubated for 24 hrs by Annexin V-FITC/PI staining based flow cytometry analysis (reference value: 5.20%); assay type: functional
A549/CDDP [5] = test: Induction of apoptosis in human A549/DDP cells at 25 uM incubated for 24 hrs by Annexin V-FITC/PI staining based flow cytometry analysis (reference value: 4.27%); assay type: functional
[6] = target: T1, von Hippel-Lindau disease tumor suppressor/Phosphatidylinositol 4,5-bisphosphate 3-kinase catalytic subunit beta isoform (Homo sapiens, UniProt P42338+P40337); test: PROTAC activity at PI3K-p110beta/VHL in human A549/DDP cells assessed as induction of PI3K-p110beta degradation at 25 uM incubated for 24 hrs by Western blot analysis; assay type: cell-based
T1 sequence (P40337 whole entry, looked up, canonical isoform): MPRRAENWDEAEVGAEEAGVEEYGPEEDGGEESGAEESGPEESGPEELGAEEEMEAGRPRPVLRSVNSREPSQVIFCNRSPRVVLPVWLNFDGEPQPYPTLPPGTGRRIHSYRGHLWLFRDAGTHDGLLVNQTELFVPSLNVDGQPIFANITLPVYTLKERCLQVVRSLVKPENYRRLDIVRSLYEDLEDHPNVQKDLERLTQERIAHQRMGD
T1 sequence (P42338 whole entry, looked up, canonical isoform): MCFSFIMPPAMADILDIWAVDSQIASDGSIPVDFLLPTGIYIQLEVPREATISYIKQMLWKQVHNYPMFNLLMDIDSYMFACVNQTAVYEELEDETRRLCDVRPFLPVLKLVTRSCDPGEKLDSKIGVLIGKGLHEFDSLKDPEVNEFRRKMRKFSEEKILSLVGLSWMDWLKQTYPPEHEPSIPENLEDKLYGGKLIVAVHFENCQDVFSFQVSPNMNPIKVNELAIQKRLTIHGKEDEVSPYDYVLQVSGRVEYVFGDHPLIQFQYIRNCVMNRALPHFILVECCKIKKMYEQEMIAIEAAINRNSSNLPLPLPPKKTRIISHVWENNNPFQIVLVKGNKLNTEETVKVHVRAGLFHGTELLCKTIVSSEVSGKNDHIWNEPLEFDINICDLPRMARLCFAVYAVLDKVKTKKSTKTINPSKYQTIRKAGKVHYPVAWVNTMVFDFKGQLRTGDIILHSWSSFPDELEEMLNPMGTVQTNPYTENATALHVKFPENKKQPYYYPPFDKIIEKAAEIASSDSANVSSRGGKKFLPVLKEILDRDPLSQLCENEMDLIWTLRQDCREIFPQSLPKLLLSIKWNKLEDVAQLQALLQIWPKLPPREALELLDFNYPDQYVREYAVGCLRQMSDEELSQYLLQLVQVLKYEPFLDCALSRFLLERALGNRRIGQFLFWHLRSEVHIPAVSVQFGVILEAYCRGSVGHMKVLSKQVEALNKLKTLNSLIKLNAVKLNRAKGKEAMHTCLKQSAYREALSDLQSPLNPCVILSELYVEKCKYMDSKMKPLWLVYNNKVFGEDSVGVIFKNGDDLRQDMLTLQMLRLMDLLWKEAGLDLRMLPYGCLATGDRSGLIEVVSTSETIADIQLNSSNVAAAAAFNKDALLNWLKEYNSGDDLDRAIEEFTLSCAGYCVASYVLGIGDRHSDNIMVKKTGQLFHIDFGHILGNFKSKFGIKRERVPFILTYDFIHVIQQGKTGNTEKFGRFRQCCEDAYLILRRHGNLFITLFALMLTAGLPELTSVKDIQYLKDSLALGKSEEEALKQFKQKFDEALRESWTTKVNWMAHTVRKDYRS

[7] = target: T1, von Hippel-Lindau disease tumor suppressor/Phosphatidylinositol 4,5-bisphosphate 3-kinase catalytic subunit beta isoform; test: PROTAC activity at PI3K-p110beta/VHL in human MCF7/ADM cells assessed as induction of PI3K-p110beta degradation at 25 uM incubated for 24 hrs by Western blot analysis; assay type: cell-based
[8] = target: T1, von Hippel-Lindau disease tumor suppressor/Phosphatidylinositol 4,5-bisphosphate 3-kinase catalytic subunit beta isoform; test: PROTAC activity at PI3K-p110beta/VHL in human A549/DDP cells assessed as induction of PI3K-p110beta degradation at 2.5 uM incubated for 24 hrs by Western blot analysis; assay type: cell-based
[9] = target: T1, von Hippel-Lindau disease tumor suppressor/Phosphatidylinositol 4,5-bisphosphate 3-kinase catalytic subunit beta isoform; test: PROTAC activity at PI3K-p110beta/VHL in human MCF7/ADM cells assessed as induction of PI3K-p110beta degradation at 2.5 uM incubated for 24 hrs by Western blot analysis; assay type: cell-based
[10] = target: T1, von Hippel-Lindau disease tumor suppressor/Phosphatidylinositol 4,5-bisphosphate 3-kinase catalytic subunit beta isoform; test: PROTAC activity at PI3K-p110beta/VHL in human MCF7/ADM cells assessed as reduction in PI3K-p110beta mRNA level at 25 uM measured for 24 hrs by qRT-PCR analysis; assay type: cell-based
[11] = target: T1, von Hippel-Lindau disease tumor suppressor/Phosphatidylinositol 4,5-bisphosphate 3-kinase catalytic subunit beta isoform; test: PROTAC activity at PI3K-p110beta/VHL in human A549/DDP cells assessed as reduction in PI3K-p110beta mRNA level at 25 uM measured for 24 hrs by qRT-PCR analysis; assay type: cell-based
MCF7 = test: Antitumor activity against human MCF7 cells assessed as cell viability incubated for 24 hrs by MTT assay; assay type: functional, cell-based; conditions: MCF7, 24 h
[12] = Antitumor activity against human MCF7/ADM cells assessed as cell viability incubated for 24 hrs by MTT assay; assay type: functional, cell-based
[13] = target: T1, von Hippel-Lindau disease tumor suppressor/Phosphatidylinositol 4,5-bisphosphate 3-kinase catalytic subunit beta isoform; test: PROTAC activity at PI3K-p110beta/VHL in human A549/DDP cells assessed as reduction in PI3K-p110beta level at 25 uM measured for 24 hrs by Western blot analysis; assay type: cell-based
A549/CDDP [14] = test: Antitumor activity against human A549/DDP cells assessed as cell viability incubated for 24 hrs by MTT assay; assay type: functional, cell-based
[15] = target: T1, von Hippel-Lindau disease tumor suppressor/Phosphatidylinositol 4,5-bisphosphate 3-kinase catalytic subunit beta isoform; test: PROTAC activity at PI3K-p110beta/VHL in human MCF7/ADM cells assessed as reduction in PI3K-p110beta level at 25 uM measured for 24 hrs by Western blot analysis; assay type: cell-based
A549 = test: Antitumor activity against human A549 cells assessed as cell viability incubated for 24 hrs by MTT assay; assay type: functional, cell-based; conditions: A549, 24 h
MCF7/ADM [16] = test: Antitumor activity against human MCF7/ADM cells xenografted in BALB/c mouse assessed as reduction in tumor volume at 50 mg/kg, ip measured every 2 days; assay type: functional, organism-based; conditions: time 2.0 day

| Compound | Activity [6] | Activity [7] | Activity [8] | Activity [9] | also measured |
| --- | --- | --- | --- | --- | --- |
| O=c1cc(N2CCOCC2)oc2c(-c3ccccc3)cccc12 |  |  |  |  | Activity (A549/CDDP [1]): Active |
| C[C@H](CCC(=O)NCCS(=O)(=O)O)[C@H]1CC[C@H]2[C@@H]3[C@@H](O)C[C@@H]4C[C@H](O)CC[C@]4(C)[C@H]3CC[C@]12C [TAURURSODIOL] |  |  |  |  | Activity (A549/CDDP [2]): Active; Activity (MCF7/ADM [3]): Active; Activity [4]: 21.48%; Activity (A549/CDDP [5]): 18.57% |
| Cc1cc(C(C)Nc2ccccc2C(=O)NCCCCCCCC(=O)N[C@H](C(=O)N2C[C@H](O)C[C@H]2C(=O)NCc2ccc(-c3scnc3C)cc2)C(C)(C)C)c2nc(N3CCOCC3)cc(=O)n2c1 (some centres not stated) | Active | Active | Active | Active |  |
| Cc1cc(C(C)Nc2ccccc2C(=O)NCCCCCC(=O)N[C@H](C(=O)N2C[C@H](O)C[C@H]2C(=O)NCc2ccc(-c3scnc3C)cc2)C(C)(C)C)c2nc(N3CCOCC3)cc(=O)n2c1 (some centres not stated) | Active | Active | Active | Active |  |
| CC(C)[C@H](NC(=O)OCc1ccccc1)C(=O)N[C@@H](C)C(=O)N[C@@H](CC(=O)O)C(=O)CF (Cbz-Val-Ala-Asp-CH2F) |  |  |  |  | Activity (A549/CDDP [2]): Active; Activity (MCF7/ADM [3]): Active |
| Cc1cc(C(C)Nc2ccccc2)c2nc(N3CCOCC3)cc(=O)n2c1 (configuration not stated) |  |  |  |  | Activity [10]: Active; Activity [11]: inactive; pIC50 (MCF7): 4.12; pIC50 [12]: 4.29; Activity [13]: inactive; pIC50 (A549/CDDP [14]): 4.24; Activity [15]: inactive; pIC50 (A549): 4.05; Activity (MCF7/ADM [16]): Active |
| N#CSc1cc(SC#N)c(N)nc1N |  |  |  |  | Activity (A549/CDDP [1]): Active |
| Cc1cc(C(C)Nc2ccccc2C(=O)NCCCC(=O)N[C@H](C(=O)N2C[C@H](O)C[C@H]2C(=O)NCc2ccc(-c3scnc3C)cc2)C(C)(C)C)c2nc(N3CCOCC3)cc(=O)n2c1 (some centres not stated) | Active | Active | Active | Active |  |
| Cc1cc(C(C)Nc2ccccc2C(=O)NCCCCCCCCCCC(=O)N[C@H](C(=O)N2C[C@H](O)C[C@H]2C(=O)NCc2ccc(-c3scnc3C)cc2)C(C)(C)C)c2nc(N3CCOCC3)cc(=O)n2c1 (some centres not stated) | Active | Active | Active | Active |  |
| Cc1cc(C(C)Nc2ccccc2C(=O)NCCC(=O)N[C@H](C(=O)N2C[C@H](O)C[C@H]2C(=O)NCc2ccc(-c3scnc3C)cc2)C(C)(C)C)c2nc(N3CCOCC3)cc(=O)n2c1 (some centres not stated) | Active | Active | Active | Active |  |
